Test results taken from publication PMC7162838, “Production of multiple bacteriocins, including the novel bacteriocin gassericin M, by Lactobacillus gasseri LM19, a strain isolated from human milk” (Applied Microbiology and Biotechnology, 2020).
Where two headings read alike, the source gives them in different places.

Tested on: L. bulgaricus DPC6901
Assay: Well-diffusion assay of naturally produced and synthetic peptides
Assay type: cell-based, Lactobacillus delbrueckii subsp. bulgaricus
Details: for antimicrobial activity of synthetic peptides: synthetic peptides resuspended in milli Q water at 1 mg/ml
[1] = fractions from HPLC fractionation I and II of L. gasseri LM19 cell extracts and supernatant, well-diffusion, Fig. 4a

| Sequence | antimicrobial activity of HPLC fractions containing the peptide mass [1] | antimicrobial activity of synthetic peptides (well-diffusion, Fig. 4a) | antimicrobial activity of HPLC fractions containing the peptide mass |
| --- | --- | --- | --- |
| MKNFNTLSFETLANIVGGRNNWAANIGGVGGATVAGWALGNAVCGPACGFVGAHYVPIAWAGVTAATGGFGKIRK [GamA, class IIb bacteriocin peptide of L. gasseri LM19 cluster 3, purified from culture and synthesised] | largest zones of inhibition | highest activity |  |
| MRKINKEELVEITGGFNAAKCAVGTAGGAFSIARGSAAFGVPGMVIGGILGGAAGALASCK [GamM, peptide of the novel two-component bacteriocin gassericin M] |  | notable | low activity |
| MIEKVSKNELSRIYGGNNVNWGSVAGSCGKGAVMGIYFGNPILGCANGAATSLVLQTASGIYKNYQKKR [Bact_2, bacteriocin peptide of L. gasseri LM19 cluster 1, identical to gassericin S peptide GasX] |  | highest activity | largest zones of inhibition |
| MKTLNEQELTQIVGGKGNKGINWANVRCASAVTIGALGGGLAGPGGMVGGFLLGSGACF [GamY, peptide of the novel two-component bacteriocin gassericin M] |  | did not show activity | clear activity |
| MKVLNECQLQTVVGGKNWSVAKCGGTIGTNIAIGAWRGARAGSFFGQPVSVGAGALIGASAGAIGGSVQCVGWLAGGGR [Bact_1, bacteriocin peptide of L. gasseri LM19 cluster 1, identical to gassericin S peptide GasA] |  | lower than that from fractions containing the Bact_1 mass |  |
| MALKTLEKHELRNVMGGNKWGNAVIGAATGATRGVSWCRGFGPWGMTACGLGGAAIGGYLGYKSN [GamX, class IIb bacteriocin peptide of L. gasseri LM19 cluster 3, purified from culture and synthesised] | low activity |  |  |
